According to the supplement of paper PMC10307832:

Key:
Test in all cases: relative viability (nuclei count vs DMSO), 5 days (fraction); higher = more cells survive
[1] = compound: CN(C)CC1=CC(=CC=C1)N=C(C2=CC=CC=C2)C3=C(NC4=C3C=CC(=C4)C(=O)N(C)C)O + C[C@@H](Oc1cc(-c2cnn(C3CCNCC3)c2)cnc1N)c1c(Cl)ccc(F)c1Cl [Crizotinib] (partner 1 µM)
Procedure, shortened: (§1)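 Nuclei were stained with Hoechst during a one-step fixation (final 0.05% Triton X-100, 1% formaldehyde, 1 ug/ml Hoechst) carried out 5 days after dosing, then counted on 4× images. The cells, lung cancer lines in 1536-well plates, had been dosed by pin tool the day after seeding with one drug alone or a fixed anchor-drug dose plus five library-drug doses (not always all listed) in √10 steps. Relative viability is the nuclei count in treated wells divided by that in vehicle wells, and each value is the median of duplicate plates.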

[2] = compound: CN(C)CC1=CC(=CC=C1)N=C(C2=CC=CC=C2)C3=C(NC4=C3C=CC(=C4)C(=O)N(C)C)O + O=C(CCCCCCC(=O)Nc1ccccc1)NO [Vorinostat] (partner 1 µM)
Procedure, shortened: as §1

[3] = compound: CN(C)CC1=CC(=CC=C1)N=C(C2=CC=CC=C2)C3=C(NC4=C3C=CC(=C4)C(=O)N(C)C)O + Cc1nc(Nc2ncc(C(=O)Nc3c(C)cccc3Cl)s2)cc(N2CCN(CCO)CC2)n1 [Dasatinib] (partner 0.075 µM)
Procedure, shortened: as §1

[4] = compound: CN(C)CC1=CC(=CC=C1)N=C(C2=CC=CC=C2)C3=C(NC4=C3C=CC(=C4)C(=O)N(C)C)O + CS(=O)(=O)N1CCN(Cc2cc3nc(-c4cccc5[nH]ncc45)nc(N4CCOCC4)c3s2)CC1 [Pictilisib] (partner 1 µM)
Procedure, shortened: as §1

Cell Line	relative viability ([1]; first compound 0.08 µM)	relative viability ([1]; first compound 0.253 µM)	relative viability ([1]; first compound 0.8 µM)	relative viability ([1]; first compound 2.53 µM)	relative viability ([1]; first compound 8 µM)	relative viability ([2]; first compound 0.08 µM)	relative viability ([2]; first compound 0.253 µM)	relative viability ([2]; first compound 0.8 µM)	relative viability ([2]; first compound 2.53 µM)	relative viability ([2]; first compound 8 µM)	relative viability ([3]; first compound 0.08 µM)	relative viability ([3]; first compound 0.253 µM)	relative viability ([3]; first compound 0.8 µM)	relative viability ([3]; first compound 2.53 µM)	relative viability ([3]; first compound 8 µM)	relative viability ([4]; first compound 0.08 µM)	relative viability ([4]; first compound 0.253 µM)	relative viability ([4]; first compound 0.8 µM)	relative viability ([4]; first compound 2.53 µM)	relative viability ([4]; first compound 8 µM)
HCC-366	0.484	0.503	0.513	0.47	0.558	0.471	0.369	0.458	0.299	0.473	0.71	0.8	0.592	0.502	0.564	0.177	0.179	0.166	0.111	0.127
HCC-827	0.919	0.909	0.923	0.879	0.868	0.861	0.803	0.801	0.867	0.815	0.382	0.25	0.203	0.294	0.236	1	1.05	0.863	1.06	0.8
HOP-62	0.927	0.907	1.09	1.06	0.882	0.624	0.659	0.643	0.7	0.46	0.618	0.703	0.65	0.571	0.579	0.817	0.7	0.587	0.943	0.497
IA-LM	0.937	0.797	0.906	0.926	1.04	0.911	0.848	0.903	0.958	1.02	–	–	–	–	–	0.361	0.463	0.342	0.389	0.579
LC-2-ad	0.406	0.402	0.486	0.4	0.441	0.694	0.699	0.727	0.681	0.622	0.697	0.593	0.751	0.409	0.44	0.453	0.383	0.442	0.521	0.231
LCLC-97TM1	0.37	0.517	0.453	0.331	0.445	0.683	0.728	0.728	0.623	0.551	0.816	0.922	0.785	0.786	0.821	0.174	0.218	0.157	0.224	0.305
LCLC-103H	1.14	1.06	0.914	1.02	0.979	0.815	0.801	0.782	0.793	0.57	0.482	0.487	0.435	0.42	0.497	0.595	0.671	0.616	0.586	0.593
LK-2	0.249	0.21	0.264	0.256	0.216	0.352	0.28	0.272	0.331	0.262	0.296	0.389	0.25	0.328	0.275	0.52	0.482	0.591	0.53	0.473
